Experimental data reported in US10662204B2 (PFIZER INC., priority 2018, dated 2020).

Experiments:
[1] = molecular target: T1, GDP-loaded KRAS (1-169) G12C, C51S, C80L, C118S (Homo sapiens, UniProt P01116, C118S/C51S/C80L/G12C); test: Mass Spectrometry Reactivity Assay (MSRA): covalent adduct of compound and KRAS G12C, Percent Modification; type: binding; details: for MSRA (% modification) 10 μM 0.50 hr / MSRA (% modification) 10 μM 0.25 hr: 10 μM compound; for MSRA (% modification) 5.0 μM 0.017 hr: 5.0 μM compound
T1 construct: GDP-loaded KRAS (1-169) G12C, C51S, C80L, C118S
Experimental: Mass Spectrometry Reactivity Assay (MSRA)
Compounds presented in the present invention covalently bind to KRAS G12C using MSRA to detect a covalent adduct of the exemplary compound and KRAS G12C.
GDP-loaded KRAS (1-169) G12C, C51S, C80L, C118S were diluted in the protein assay buffer 25 mM Hepes pH7.5, 200 mM NaCl, 5% glycerol to concentration of 5 μM and 20 μl of protein was transferred into 96-well plate. Initial compound stocks were generated at concentrations 100-fold higher that their desired assay concentrations. See K-Ras(G12C) inhibitors allosterically control GTP affinity and effector interactions; Ostrem J M, Peters U, Sos M L, Wells J A, Shokat K M; Nature. 2013, Nov. 28; 503(7477):548-51.
Exemplary compounds dissolved in DMSO were diluted 100-fold into solution containing 20 μl of 5 μM KRAS protein in the 96-well plate to initiate the reaction. Mosquito (TPP Lab tech) liquid handling robot was used to add compounds to protein solution. Typical final concentration of the compounds was 5 μM or 10 μM. The plates were placed on a shaker for 1 min at RT, sealed and incubated at room temperature for specified time period. 5 μl of reaction mix was added to 10 μl of 0.2% formic acid stop solution and mixed well. Typical end points were 1, 15, 30, and 60 min.
Data were collected using Waters Acquity H-class UPLC system/Xevo G2-XS TOF mass spectrometer. The protein was injected in their liquid phase onto a Bruker Microtrap protein column TR1/15109/03. The following buffers were used to set LC gradient: Buffer A: 0.2% formic acid H2O; B: 0.2% formic acid CAN. The protein was eluted from the column using the following LC Gradient: 0-0.4 min, 10% B to 30% B; 0.4 min-2.4 min, to 90% B, 2.5 min, 10% B, 3 min, 10% B. Initial data analysis was performed using MaxEnt software right after data acquisition.
The standard auto processing function was used to define percentage of unmodified and modified KRAS protein using MexEnt software right after data acquisition. The highest peak was defined as 100% while smaller peak as assigned the number defined by autoprocessing function. The percent of modification corresponding to modified with exemplary compound and unmodified KRAS GDP-loaded KRAS (1-169) G12C, C51S, C80L, C118S were exported to Xcel data analysis software.
The percent of modified protein at the defined concentration of exemplary compound was calculated using the following formula: % mod=Num of modified peak/Sum of modified+unmodified. The resultant value defined as Percent Modification (PM) and an increase in PM reflects that the specific compound is better than other compounds at specified compound concentration at a given time point.

KRAS G12C = KRAS G12C (Homo sapiens, UniProt P01116, G12C); test: Cell Activity Assay: accumulation of GDP-bound KRAS G12C in MIAPaCa-2 cells (Raf-1 RBD capture, MSD readout); type: cell-based; design: endogenous in cells; host or cells: MIAPaCa-2; details: 6 hours, assay limit is 30.00
Experimental: Compounds presented in the present invention lead to the accumulation of the GDP bound Ras upon treatment of human cancer cell line.
The accumulation of the GDP-bound KRAS G12C in cellular environment was measured based on the principle that KRAS G12C only binds to its downstream kinase; Raf-1 (MAP Kinase Kinase Kinase), when in its active-GTP bound state. In this state, Ras binded to a domain of Raf-1 kinase referred to as the Ras Binding Domain (RBD).
MIAPaCa-2 cells were grown in RPMI 1640 medium (Gibco 11875) supplemented with 10% fetal bovine serum and 1% penicillin/streptomycin. Cells were seeded in 96-well tissue culture plates at a density of 30,000 cells/well and allowed to attach for 16-24 hours. Test compounds were prepared as a 10 mM stock in DMSO and serially diluted in 100% DMSO using a 3-fold dilution scheme. An intermediate 5× concentrated plate in complete growth medium was made and 25 μl/well was added to the 100 μl of cells for a final concentration of 0.3% DMSO. Each concentration of exemplary compound was tested in duplicate. The negative control wells were cells with control inhibitor at 10 μM, and the positive control wells were cells without drugs, DMSO only. Plates were incubated for 6 hours at 37° C., 5% CO2. Following treatment, cells were washed 3× with ice-cold PBS and 115 μl/well ice-cold 1× Assay/Lysis. Buffer with protease inhibitors was added (25 mM HEPES, pH 7.5, 150 mM NaCl, 1% NP-40, 10 mM MgCl2, 1 mM EDTA, 2% Glycerol). Following lysis samples were frozen at −80° C.
Raf-1 RBD (LJIC-1988A1) was diluted to 100 ng/well in PBS and 5 μl/well was spot coated onto MSD high bind SECTOR plates (L15XB). Plates were incubated at room temperature for 1 hour on an orbital shaker. Plates were washed with PBS/0.05% Tween-20 and 50 μl/well of thawed lysate samples were added, followed by 50 μl of 1% MSD Blocker A in PBS/0.05 Tween-20 (R93BA). Plates were incubated for 1 hour on an orbital shaker and washed with PBS/0.05% Tween-20. 25 μl/well of Anti-pan-Ras Antibody (Cell Biolabs 244003) diluted 1:3000 was added in 1% MSD Blocker A solution and plates were incubated for 1 hour on an orbital shaker and washed with PBS/0.05% Tween-20. SULFO-TAG goat anti-mouse secondary antibody (MSD R32AC) was diluted 1:500 in MSD Blocker A solution and added at 25 μL/well. Plates were incubated for 1 hour on an orbital shaker and washed with PBS/0.05% Tween-20. 150 μl/well of Read Buffer T (MSD R92TC) diluted 1:3 in H2O was added and plates were read on a Meso Scale Discovery Sector Imager S600.
KRAS signal was normalized to maximum inhibition and DMSO control values, and IC50 values were generated using a 4 parameter fit of the dose response curve. The decrease in IC50 reflects that the exemplary compound lead to a higher level of accumulation of GDP-bound KRAS G12C than another exemplary compounds at specific timepoint of treatment of cancer cell line.

MSRA (% modification) 10 μM 0.50 hr [1]	MSRA (% modification) 5.0 μM 0.017 hr [1]	also measured	Structure (SMILES)
34%	–	IC50 (KRAS G12C): 3.91 µM	C=CC(=O)N1CCN(c2ncnc3c(Oc4c(C)ccc5[nH]ncc45)cc(Cl)cc23)CC1 [Example 12C, 1-(4-{6-chloro-8-[(5-methyl-1H-indazol-4-yl)oxy]quinazolin-4-yl}piperazin-1-yl)prop-2-en-1-one]
20%	–	IC50 (KRAS G12C): 4.72 µM	C=CC(=O)N1CCN(c2ncnc3c(Oc4c(C)c(Cl)cc5[nH]ncc45)nccc23)C[C@H]1C [Example 24A, 1-[(2R)-4-{8-[(6-chloro-5-methyl-1H-indazol-4-yl)oxy]pyrido[3,4-d]pyrimidin-4-yl}-2-methylpiperazin-1-yl]prop-2-en-1-one]
55%	–	MSRA (% modification) 10 μM 0.25 hr [1]: 34%; IC50 (KRAS G12C): 8.14 µM	C=CC(=O)N1CCN(c2nc(OC[C@@H]3CCC(=O)N3)nc3c(Oc4c(C)ccc5[nH]ncc45)cccc23)CC1 [Example 11F, (5S)-5-[({4-(4-acryloylpiperazin-1-yl)-8-[(5-methyl-1H-indazol-4-yl)oxy]quinazolin-2-yl}oxy)methyl]pyrrolidin-2-one]
–	–	MSRA (% modification) 10 μM 0.25 hr [1]: 6%; IC50 (KRAS G12C): 20.9 µM	C=CC(=O)N1CCN(c2ncnc3c(Oc4c(Cl)c(F)cc5[nH]ncc45)nc(Cl)cc23)[C@H](C)C1 [Example 40A, 1-[(3R)-4-{6-chloro-8-[(5-chloro-6-fluoro-1H-indazol-4-yl)oxy]pyrido[3,4-d]pyrimidin-4-yl}-3-methylpiperazin-1-yl]prop-2-en-1-one]
12%	–	–	C=CC(=O)N1CCN(c2ncnc3c(Oc4c(Br)ccc5[nH]ncc45)nccc23)CC1 [Example 15C, 1-(4-{8-[(5-bromo-1H-indazol-4-yl)oxy]pyrido[3,4-d]pyrimidin-4-yl}piperazin-1-yl)prop-2-en-1-one]
26%	–	–	C=CC(=O)N1CCN(c2ncnc3c(Oc4c(Br)ccc5[nH]ncc45)cccc23)CC1 [Example 11C, 1-(4-(8-((5-bromo-1H-indazol-4-yl)oxy)quinazolin-4-yl)piperazin-1-yl)prop-2-en-1-one]
–	15%	–	C=CC(=O)N1CCN(c2nc(O[C@@H]3CCN(CCOC)C[C@H]3C)nc3c(Oc4c(Cl)c(F)cc5[nH]ncc45)nccc23)CC1 (racemic) [Example 27I, rac-1-[4-(8-[(5-chloro-6-fluoro-1H-indazol-4-yl)oxy]-2-{[(3R,4R)-1-(2-methoxy-ethyl)-3-methyl-piperidin-4-yl]oxy}pyrido [3,4-d]pyrimidin-4-yl)piperazin-1-yl]prop-2-en-1-one]
–	17%	–	C=CC(=O)N1CCN(c2nc(OC3CN(C)CC34CC4)nc3c(Oc4c(Cl)c(F)cc5[nH]ncc45)nccc23)CC1 (stereo not shown) [Example 26I, 1-(4-{8-[(5-chloro-6-fluoro-1H-indazol-4-yl)oxy]-2-[(5-methyl-5-azaspiro [2.4]heptan-7-yl)oxy]pyrido [3,4-d]pyrimidin-4-yl}piperazin-1-yl)prop-2-en-1-one]
–	6%	–	C=CC(=O)N1CCN(c2nc(O[C@H]3CN(C)C[C@H]3C)nc3c(Oc4c(Cl)c(F)cc5[nH]ncc45)nccc23)CC1 (racemic) [Example 25I, rac-1-[4-(8-[(5-chloro-6-fluoro-1H-indazol-4-yl)oxy]-2-{[(3S,4S)-1,4-dimethyl-pyrrolidin-3-yl]oxy}pyrido [3,4-d]pyrimidin-4-yl)piperazin-1-yl]prop-2-en-1-one]
–	16%	–	C=CC(=O)N1CCN(c2nc(O[C@@H]3CCN(C)C[C@H]3C)nc3c(Oc4c(Cl)c(F)cc5[nH]ncc45)nccc23)CC1 (racemic) [Example 29I, rac-1-[4-(8-[(5-chloro-6-fluoro-1H-indazol-4-yl)oxy]-2-{[(3R,4R)-1,3-dimethyl-piperidin-4-yl]oxy}pyrido [3,4-d]pyrimidin-4-yl)piperazin-1-yl]prop-2-en-1-one]
–	7%	–	C=CC(=O)N1CCN(c2nc(Oc3cc4n(n3)CCN(C)C4)nc3c(Oc4c(Cl)c(F)cc5[nH]ncc45)nccc23)CC1 [Example 45I, 1-(4-{8-[(5-chloro-6-fluoro-1H-indazol-4-yl)oxy]-2-[(5-methyl-4,5,6,7-tetrahydro-pyrazolo [1,5-a]pyrazin-2-yl)oxy]pyrido [3,4-d]pyrimidin-4-yl}piperazin-1-yl)prop-2-en-1-one]
–	20%	–	C=CC(=O)N1CCN(c2nc(O[C@@H]3CN(C)C[C@H]3C)nc3c(Oc4c(Cl)c(F)cc5[nH]ncc45)nccc23)CC1 (racemic) [Example 24I, rac-1-[4-(8-[(5-chloro-6-fluoro-1H-indazol-4-yl)oxy]-2-{[(3S,4R)-1,4-dimethyl-pyrrolidin-3-yl]oxy}pyrido [3,4-d]pyrimidin-4-yl)piperazin-1-yl]prop-2-en-1-one]
–	14%	–	C=CC(=O)N1CCN(c2nc(Oc3nn(C)c4c3CCN(C)C4)nc3c(Oc4c(Cl)c(F)cc5[nH]ncc45)nccc23)CC1 [Example 47I, 1-(4-{8-[(5-chloro-6-fluoro-1H-indazol-4-yl)oxy]-2-[(1,6-dimethyl-4,5,6,7-tetrahydro-1H-pyrazolo [3,4-c]pyridin-3-yl)oxy]pyrido [3,4-d]pyrimidin-4-yl}piperazin-1-yl)prop-2-en-1-one]
–	16%	–	C=CC(=O)N1CCN(c2nc(O[C@@H]3CN(C)C[C@H]3OC)nc3c(Oc4c(Cl)c(F)cc5[nH]ncc45)nccc23)C[C@@H]1C [Example 37I, 1-[(2S)-4-(8-[(5-chloro-6-fluoro-1H-indazol-4-yl)oxy]-2-{[(3R,4R)-4-methoxy-1-methyl-pyrrolidin-3-yl]oxy}pyrido [3,4-d]pyrimidin-4-yl)-2-methyl-piperazin-1-yl]prop-2-en-1-one]
